Read-outs that look alike come from different tables or passages of the source.
How the values were obtained:
[1] = PK analysis after i.v. administration of N-251 in fasted mice; format: in vivo; details: for MRTiv / Vd1 / Vd2 / AUC / k el / clearance / Vd: fasted mice; for A (hybrid parameter) / B (hybrid parameter) / a (hybrid parameter) / b (hybrid parameter): two-compartment fit; for half-life / AUC / k el / clearance / Vd: male, ICR, mouse, plasma; for clearance: read-out: CLtotal (converted); for Vd: read-out: Vdss
Protocol: We used healthy 5-week-old ICR male mice that were subjected to overnight fasting since the night a day before the test. To analyze N-251 after i.v. administration, doses of 25, 10, and 5 mg/kg were used for each group. The blood sample was collected at 2, 5, 15, and 30 min as well as 1, 2, 4, and 6 h post-dose, and a single blood sample was collected from a single mouse. Preparation of plasma samples of N-251 was described in the “Methods” section. Data were expressed as mean (n = 6) ± standard deviation (SD). Plasma concentration-time profiles after i.v. administration were fitted to a two-compartment model using the non-linear least-squares regression program MULTI [17]. Plasma concentration (Cp) was expressed using the following equation: Cp=A⋅EXP−α⋅t+B⋅EXP−β⋅t.
where A and B are D ⋅ (α − k21)/Vd1/(α − β) and D ⋅ (k21 − β)/Vd1/(α − β), respectively. D, Vd1, and k21 are the dose, apparent distribution volume of central compartment, and distribution rate constant from the peripheral to central compartment, respectively, and α and β represent the slopes of α and β phases of log Cp, respectively. PK parameters were calculated as follows: AUC = A/α +B/β; total body clearance, CLtotal =D/AUC; elimination rate constant, kel = (Aβ + Bα)/(A + B); apparent distribution volume of peripheral compartment, Vd2 =k12/k21·Vd1; distribution volume at steady state, Vdss = Vd1 + Vd2; and mean residence time (MRT) = (k12+ k21)/(kel·k21).

[2] = PK analysis after p.o. administration of N-251 in fasted mice; format: in vivo; details: ICR, mouse, plasma, po; for AUC: 0 to infinity
Protocol: To analyze the absorption kinetics of N-251, it was orally administered to fasted mice with dose of 210, 100, 68, 50, and 30 mg/kg. Blood sample was collected at 15 and 30 min as well as 1, 1.5, 2, 3, 4, and 6 h post-dose. Data were expressed as the mean (n = 6) ± SD. AUC and MRT after p.o. administration in fasting mice were calculated based on the trapezoidal rule. F was calculated with an AUC of 10 mg/kg of i.v. dose. The highest observed concentration was used as Cmax, and the time for Cmax was defined as Tmax.

[3] = i.v. 5, 10 and 25 mg/kg, range over doses

Structure (SMILES): OCCCCCCC1COOC2(CCCCCCCCCCC2)OOC1 [N-251, 6-(1,2,6,7-tetraoxaspiro [7.11]nonadec-4-yl)hexan-1-ol]
- MRTiv ([1]; i.v. 5 mg/kg): 1.12 h
- Vd1 ([1]; i.v. 5 mg/kg): 3.23 L/kg
- Vd2 ([1]; i.v. 5 mg/kg): 1.62 L/kg
- A (hybrid parameter) ([1]; i.v. 5 mg/kg): 1453.6 ± 465.9 ng/mL
- B (hybrid parameter) ([1]; i.v. 5 mg/kg): 92.5 ± 182.0 ng/mL
- a (hybrid parameter) ([1]; i.v. 5 mg/kg): 1.62 ± 0.70 h⁻¹
- b (hybrid parameter) ([1]; i.v. 5 mg/kg): 0.35 ± 0.37 h⁻¹
- MRTiv ([1]; i.v. 10 mg/kg): 0.96 h
- Vd1 ([1]; i.v. 10 mg/kg): 1.58 L/kg
- Vd2 ([1]; i.v. 10 mg/kg): 2.35 L/kg
- A (hybrid parameter) ([1]; i.v. 10 mg/kg): 5922.7 ± 1731.5 ng/mL
- B (hybrid parameter) ([1]; i.v. 10 mg/kg): 410.0 ± 253.8 ng/mL
- a (hybrid parameter) ([1]; i.v. 10 mg/kg): 3.84 ± 1.23 h⁻¹
- b (hybrid parameter) ([1]; i.v. 10 mg/kg): 0.46 ± 0.15 h⁻¹
- MRTiv ([1]; i.v. 25 mg/kg): 0.86 h
- Vd1 ([1]; i.v. 25 mg/kg): 1.36 L/kg
- Vd2 ([1]; i.v. 25 mg/kg): 1.52 L/kg
- A (hybrid parameter) ([1]; i.v. 25 mg/kg): 17,738.1 ± 1700.0 ng/mL
- B (hybrid parameter) ([1]; i.v. 25 mg/kg): 690.4 ± 341.6 ng/mL
- a (hybrid parameter) ([1]; i.v. 25 mg/kg): 3.12 ± 0.55 h⁻¹
- b (hybrid parameter) ([1]; i.v. 25 mg/kg): 0.39 ± 0.10 h⁻¹
- T1/2α [1, 3]: 0.18 to 0.429 h
- distribution volume [1, 3]: 2.88 to 4.85 L/kg
- half-life ([1]; other: i.v. and p.o. administration, i.v. and p.o. administration, read-out: half-life): < 2 h
- AUC ([1]; iv, i.v. 5 mg/kg): 1160 ng·h/mL
- k el ([1]; iv, i.v. 5 mg/kg): 0.000369 s⁻¹
- clearance ([1]; iv, i.v. 5 mg/kg): 71.7 mL/min/kg
- Vd ([1]; iv, i.v. 5 mg/kg): 4.85 L/kg
- AUC ([1]; iv, i.v. 10 mg/kg): 2430 ng·h/mL
- k el ([1]; iv, i.v. 10 mg/kg): 0.000722 s⁻¹
- clearance ([1]; iv, i.v. 10 mg/kg): 68.5 mL/min/kg
- Vd ([1]; iv, i.v. 10 mg/kg): 3.93 L/kg
- AUC ([1]; iv, i.v. 25 mg/kg): 7460 ng·h/mL
- k el ([1]; iv, i.v. 25 mg/kg): 0.000686 s⁻¹
- clearance ([1]; iv, i.v. 25 mg/kg): 55.8 mL/min/kg
- Vd ([1]; iv, i.v. 25 mg/kg): 2.88 L/kg
- half-life ([1]; iv, i.v. 5, 10 and 25 mg/kg, range over doses, read-out: T1/2β): 1.5 to 1.99 h
- Tmax ([2]; every group of dose (30-210 mg/kg)): 2 h
- bioavailability ([2]; p.o. administration, over doses 30-210 mg/kg, read-out: bioavailability (F)): ~23%
- Cmax ([2]; male, p.o. 30 mg/kg): 634 ± 129 ng/mL
- Tmax ([2]; male, p.o. 30 mg/kg): 2 h
- AUC ([2]; male, p.o. 30 mg/kg): 1570 ng·h/mL
- Cmax ([2]; male, p.o. 50 mg/kg): 1360 ± 799 ng/mL
- Tmax ([2]; male, p.o. 50 mg/kg): 2 h
- AUC ([2]; male, p.o. 50 mg/kg): 2570 ng·h/mL
- Cmax ([2]; male, p.o. 68 mg/kg): 1680 ± 811 ng/mL
- Tmax ([2]; male, p.o. 68 mg/kg): 2 h
- AUC ([2]; male, p.o. 68 mg/kg): 3770 ng·h/mL
